Test results: patent publication EP0089767A1, “Acid addition salts of a penicillanic acid derivative” (UPJOHN LIMITED, priority 1982, dated 1983)
Where a name gives a salt, the structure may show the parent alone.

Tests used:
S. pyrogenes (UC 152) = experiment: Antibiotic potency: CD50 in mice challenged with a lethal dose of microorganism; type: in vivo; settings: oral intubation at 0, 24, 48 and 72 hours after interperitoneal challenge with S. pyrogenes (UC 152), dose curing 50% of mice, mean (95% confidence limits); for ED50: Mus musculus
Protocol: (§1) The antibiotic potency of the salts of the present invention is illustrated by the data below providing CD50's of the various antibiotic agents, dissolved in inert vehicle, when administered to mice by oral intubation at 0, 24, 48, and 72 hours after challenge of the mice with an interperitoneally administered dose of microorganism which, in the absence of antibiotic agent, would be lethal. The CD50 for an agent is the dose at which 50% of the mice are cured under such a dosing schedule. In the data below the first number in each entry is the mean value and the numbers in parenthesis are the 95% confidence limits: […]

S. aureus = experiment: as above; type: in vivo; settings: oral intubation at 0, 24, 48 and 72 hours after interperitoneal challenge with S. aureus, dose curing 50% of mice, mean (95% confidence limits)
Protocol: as §1

| SMILES | ED50 (S. pyrogenes (UC 152)) | ED50 (S. aureus; Staphylococcus aureus, po) | CD50 (S. pyrogenes (UC 152)) | CD50 (S. aureus) | CD50 (S. aureus; hydrochloride) |
| --- | --- | --- | --- | --- | --- |
| CC1(C)S[C@@H]2[C@H](NC(=O)[C@H](N)c3ccccc3)C(=O)N2[C@H]1C(=O)O [ampicillin, 6-[D-(2-amino-2-phenylacetamido)] penicillanicacid] | 0.49 µmol/kg | 2 µmol/kg |  |  |  |
| CCOC(=O)OC(C)OC(=O)[C@@H]1N2C(=O)[C@@H](NC(=O)[C@H](N)c3ccccc3)[C@H]2SC1(C)C (stereo partly drawn) [bacampicillin 1-naphthalene-sulfonate, Bacampicillin 1-Naphthalenesulfonate] |  |  | 0.15 (0.10-0.20) micromoles/kg | 0.74 (0.43-1.3) micromoles/kg |  |
| CCOC(=O)OC(C)OC(=O)[C@@H]1N2C(=O)[C@@H](NC(=O)[C@H](N)c3ccccc3)[C@H]2SC1(C)C (stereo partly drawn) [bacampicillin-HCl, bacampicillin hydrochloride] | 0.19 µmol/kg |  |  |  | 1.5 (1.0-2.3) micromoles/kg |
